Results on 17 compounds are retold here after patent US20180148418A1, “AMIDO-SUBSTITUTED CYCLOHEXANE DERIVATIVES” (Bayer Pharma Aktiengesellschaft, priority 2015, published 2018).

The subject of assay [1] is wildtype Wnt signaling cascade. In words: HEK293 TOP assay (Super TopFlash luciferase reporter, Wnt-3a stimulated). In kind it is cell-based. To be noted: Homo sapiens, HEK293 TOP reporter cells, Wnt3a at EC50, 16 hours. The method in brief: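 HEK293 cells stably carrying Super TopFlash (TOP) run in parallel with FOP cells, 10000/well plated 24 h ahead, stimulated with recombinant human Wnt-3a. Compounds tested 50 μM to 15 nM in 3.16-fold steps in CAFTY buffer pH 7.4 with 2 mM Ca^2+ and 0.01% BSA; luciferase read-out.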

The subject of assay [2] is HEK293 cells cotransfected with the FOP control vector. The experiment in a line: HEK293 FOP assay (control reporter with non-functional TCF elements). To be noted: Homo sapiens, 16 hours. It counts as cell-based. The method in brief:
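Stable HEK293 line carrying FOP control reporter (randomized non-functional TCF sites, with pcDNA3), Geneticin-selected, plated 24 h before assay. Stimulated with recombinant human Wnt-3a (2500-5 ng/ml) and compounds 50 μM–15 nM (3.16-fold steps) in CAFTY buffer pH 7.4 with 2 mM Ca2+, 0.01% BSA, run parallel to TOP line.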

For the next assay, the target named is T1, TNKS2 (Homo sapiens, UniProt Q9H2K2).
T1 construct: purchased BPS Bioscience, San Diego, USA 80572 (TNKS2 Histone Ribosylation Assay Kit)
T1 sequence (Q9H2K2 1-1166): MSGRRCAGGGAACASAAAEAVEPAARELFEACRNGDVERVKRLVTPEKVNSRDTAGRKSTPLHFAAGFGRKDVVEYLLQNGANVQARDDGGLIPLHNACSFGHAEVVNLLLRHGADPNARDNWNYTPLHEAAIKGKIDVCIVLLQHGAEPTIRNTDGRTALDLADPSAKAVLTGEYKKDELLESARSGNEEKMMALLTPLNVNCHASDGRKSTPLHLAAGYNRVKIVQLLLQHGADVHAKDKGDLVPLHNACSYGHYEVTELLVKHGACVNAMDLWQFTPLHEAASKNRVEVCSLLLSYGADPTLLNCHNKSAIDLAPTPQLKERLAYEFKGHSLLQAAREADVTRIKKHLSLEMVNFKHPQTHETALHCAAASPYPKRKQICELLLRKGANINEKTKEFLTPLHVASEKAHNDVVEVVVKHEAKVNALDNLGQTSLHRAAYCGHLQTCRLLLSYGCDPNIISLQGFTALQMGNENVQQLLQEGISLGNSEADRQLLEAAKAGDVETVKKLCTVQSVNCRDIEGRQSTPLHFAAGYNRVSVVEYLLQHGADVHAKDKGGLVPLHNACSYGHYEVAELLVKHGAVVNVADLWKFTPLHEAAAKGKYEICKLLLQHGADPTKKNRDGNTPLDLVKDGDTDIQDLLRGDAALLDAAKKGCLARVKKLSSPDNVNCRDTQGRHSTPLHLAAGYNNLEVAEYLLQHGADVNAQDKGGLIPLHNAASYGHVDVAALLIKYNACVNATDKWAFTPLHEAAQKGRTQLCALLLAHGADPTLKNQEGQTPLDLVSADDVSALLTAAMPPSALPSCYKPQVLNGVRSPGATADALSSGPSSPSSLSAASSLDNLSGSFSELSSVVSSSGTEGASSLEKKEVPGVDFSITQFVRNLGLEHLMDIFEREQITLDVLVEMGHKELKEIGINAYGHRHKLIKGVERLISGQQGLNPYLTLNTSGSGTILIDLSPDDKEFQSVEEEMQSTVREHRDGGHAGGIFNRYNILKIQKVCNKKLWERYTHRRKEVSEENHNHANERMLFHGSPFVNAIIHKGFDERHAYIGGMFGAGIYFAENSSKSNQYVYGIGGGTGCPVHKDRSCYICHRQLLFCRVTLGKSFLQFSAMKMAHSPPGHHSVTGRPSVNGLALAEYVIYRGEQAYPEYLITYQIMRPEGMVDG
The experiment in a line: TNKS2 Assay B (auto-parsylation, [3H]-NAD+ SPA). It counts as biochemical. The following applies: 6 nM TNKS2, auto-parsylation, over night at room temperature.

As for `CNC(=O)c1nc[nH]c1C(=O)N[C@H]1CC[C@@]2(CCCN(c3cc(C)c(F)cc3Cl)C2=O)CC1` [Example 304, N^5-[(trans)-2-(2-chloro-4-fluoro-5-methylphenyl)-1-oxo-2-azaspiro[5.5]undec-9-yl]-N^4-methyl-1H-imidazole-4,5-dicarboxamide], the IC50 is 0.011 µM in assay [1] (HEK293, 16 h); at least 0.5 µM in assay [2]; 0.047 µM against TNKS2.
On to `O=C(N[C@H]1CC[C@@]2(CCN(c3cccs3)C2=O)CC1)c1cnn2cccnc12` [Example 361, N-[(trans)-1-oxo-2-(thiophen-2-yl)-2-azaspiro[4.5]dec-8-yl]pyrazolo[1,5-a]pyrimidine-3-carboxamide], for which the IC50 in assay [1] (HEK293, 16 h) is 0.56 µM; in assay [2], at least 50 µM; at TNKS2, 3.9 µM.
The like results for `Cc1cc(N2CCC[C@]3(CC[C@@H](NC(=O)c4[nH]cnc4C(=O)N4CC5(COC5)C4)CC3)C2=O)c(Cl)cc1F` [Example 311, N-[(trans)-2-(2-chloro-4-fluoro-5-methylphenyl)-1-oxo-2-azaspiro[5.5]undec-9-yl]-4-(2-oxa-6-azaspiro[3.3]hept-6-ylcarbonyl)-1H-imidazole-5-carboxamide] were, in that order, 0.03 µM, at least 50 µM and 0.041 µM.
In the case of `COCCn1cc(C(=O)N[C@H]2CC[C@@]3(CCN(c4ccc(F)cc4Cl)C3=O)CC2)c2ncccc21` [Example 345, N-[(trans)-2-(2-chloro-4-fluorophenyl)-1-oxo-2-azaspiro[4.5]dec-8-yl]-1-(2-methoxyethyl)-1H-pyrrolo[3,2-b]pyridine-3-carboxamide], the 50% inhibitory concentration (IC50) amounted to 0.017 µM in assay [1] (HEK293, 16 h); 8.2 µM in assay [2]; 0.044 µM on TNKS2.
For `Cc1cc(C)n2nc(C)c(C(=O)N[C@H]3CC[C@@]4(CCN(c5ccc(F)cc5Cl)C4=O)CC3)c2n1` [Example 227, N-[(trans)-2-(2-chloro-4-fluorophenyl)-1-oxo-2-azaspiro[4.5]dec-8-yl]-2,5,7-trimethylpyrazolo[1,5-a]pyrimidine-3-carboxamide] the same measures were 0.088 µM, at least 50 µM and 0.15 µM.
The like results for `O=C(N[C@H]1CC[C@@]2(CCN(c3c(F)cc(F)cc3Cl)C2=O)CC1)c1cnc2cccnn12` [Example 243, N-[(trans)-2-(2-chloro-4,6-difluorophenyl)-1-oxo-2-azaspiro[4.5]dec-8-yl]imidazo[1,2-b]pyridazine-3-carboxamide] were, in that order, 0.0015 µM, at least 50 µM and 0.011 µM.
The like results for `COC1CN(C(=O)c2nc[nH]c2C(=O)N[C@H]2CC[C@@]3(CCN(c4ccc(F)cc4Cl)C3=O)CC2)C1` [Example 188, N-[(trans)-2-(2-chloro-4-fluorophenyl)-1-oxo-2-azaspiro[4.5]dec-8-yl]-4-[(3-methoxyazetidin-1-yl)carbonyl]-1H-imidazole-5-carboxamide] were, in that order, 0.00068 µM, at least 50 µM and 0.0027 µM.
In the case of `Cc1cc(N2CC[C@]3(CC[C@@H](NC(=O)c4[nH]cnc4C(=O)N4CC5(COC5)C4)CC3)C2=O)c(Cl)cc1F` [Example 293, N-[(trans)-2-(2-chloro-4-fluoro-5-methylphenyl)-1-oxo-2-azaspiro[4.5]dec-8-yl]-4-(2-oxa-6-azaspiro[3.3]hept-6-ylcarbonyl)-1H-imidazole-5-carboxamide], the IC50 was 0.0016 µM in assay [1] (HEK293, 16 h); at least 50 µM in assay [2]; 0.0079 µM at TNKS2.
For `Cn1nc2ccccc2c1C(=O)N[C@H]1CC[C@H](C(=O)Nc2ccc(F)cc2Cl)CC1` [Example 250, N-{trans-4-[(2-chloro-4-fluorophenyl)carbamoyl]cyclohexyl}-2-methyl-2H-indazole-3-carboxamide] the same measures were at least 50 µM, at least 50 µM and above 10 µM.
For `O=C(N[C@H]1CC[C@@]2(CCN(c3ccccn3)C2=O)CC1)c1cnn2cccnc12` [Example 346, N-[(trans)-1-oxo-2-(pyridin-2-yl)-2-azaspiro[4.5]dec-8-yl]pyrazolo[1,5-a]pyrimidine-3-carboxamide] the same measures were 0.059 µM, at least 50 µM and 0.53 µM.
The like results for `O=C(N[C@H]1CC[C@@]2(CCCN(c3cc(F)c(F)cc3Cl)C2=O)CC1)c1[nH]cnc1C(=O)N1CC(OC(F)F)C1` [Example 322, N-[(trans)-2-(2-chloro-4,5-difluorophenyl)-1-oxo-2-azaspiro[5.5]undec-9-yl]-4-{[3-(difluoromethoxy)azetidin-1-yl]carbonyl}-1H-imidazole-5-carboxamide] were, in that order, 0.0014 µM, 21 µM and 0.012 µM.
In the case of `O=C(N[C@H]1CC[C@@]2(CCN(c3cccc(Cl)c3)C2=O)CC1)c1c[nH]c2cccnc12` [Example 275, N-[(trans)-2-(3-chlorophenyl)-1-oxo-2-azaspiro[4.5]dec-8-yl]-1H-pyrrolo[3,2-b]pyridine-3-carboxamide], the IC50 came to 0.6 µM in assay [1] (HEK293, 16 h); 11 µM in assay [2]; 0.3 µM against TNKS2.
For `O=C(N[C@H]1CC[C@@]2(CCN(c3ccccc3)C2=O)CC1)c1cnc2cccnn12` [Example 240, N-[(trans)-1-oxo-2-phenyl-2-azaspiro[4.5]dec-8-yl]imidazo[1,2-b]pyridazine-3-carboxamide] the same measures were 0.029 µM, at least 0.5 µM and 0.51 µM.
Consider `CCc1cc(CC)n2ncc(C(=O)N[C@H]3CC[C@@]4(CCN(c5ccc(F)cc5Cl)C4=O)CC3)c2n1` [Example 348, N-[(trans)-2-(2-chloro-4-fluorophenyl)-1-oxo-2-azaspiro[4.5]dec-8-yl]-5,7-diethyl pyrazolo[1,5-a]pyrimidine-3-carboxamide], for which the IC50 in assay [1] (HEK293, 16 h) is 0.0018 µM; in assay [2] it was at least 50 µM; at TNKS2 it was 0.0092 µM.
Consider `CC(C)n1nc(C(=O)N[C@H]2CC[C@@]3(CCN(c4ccc(F)cc4Cl)C3=O)CC2)c2ccc(Br)cc21` [Example 319, 6-bromo-N-[(trans)-2-(2-chloro-4-fluorophenyl)-1-oxo-2-azaspiro[4.5]dec-8-yl]-1-isopropyl-1H-indazole-3-carboxamide], for which the IC50 in assay [1] is at least 50 µM; in assay [2], at least 50 µM; at TNKS2 it was above 10 µM.
Turning to `CCNC(=O)c1nc[nH]c1C(=O)N[C@H]1CC[C@@]2(CCCN(c3cc(F)c(F)cc3Cl)C2=O)CC1` [Example 318, N^5-[(trans)-2-(2-chloro-4,5-difluorophenyl)-1-oxo-2-azaspiro[5.5]undec-9-yl]-N^4-ethyl-1H-imidazole-4,5-dicarboxamide], the IC50 in assay [1] (HEK293, 16 h) was 0.002 µM; in assay [2] it was at least 0.5 µM; at TNKS2 it was 0.0087 µM.
For `COCc1cc(C)nc2c(C(=O)N[C@H]3CC[C@@]4(CCN(c5c(F)cc(F)cc5Cl)C4=O)CC3)cnn12` [Example 241, N-[(trans)-2-(2-chloro-4,6-difluorophenyl)-1-oxo-2-azaspiro[4.5]dec-8-yl]-7-(methoxymethyl)-5-methylpyrazolo[1,5-a]pyrimidine-3-carboxamide] the same measures were 0.00099 µM, 8.1 µM and 0.019 µM.
